This is an account of results in ChEMBL document CHEMBL1144388, “Carbonic anhydrase inhibitors: synthesis and inhibition of cytosolic/tumor-associated carbonic anhydrase isozymes I, II, and IX with sulfonamides incorporating thioureido-sulfanilyl scaffolds” (Bioorg Med Chem Lett, 2005).

Targets include Carbonic anhydrase 2 (Homo sapiens, UniProt P00918); Carbonic anhydrase 9 (Homo sapiens, UniProt Q16790); Carbonic anhydrase 1 (Homo sapiens, UniProt P00915).
For assay [1], the target named is Carbonic anhydrases; II & IX (Homo sapiens, UniProt P00918+Q16790).
Description: Ratio against Carbonic anhydrase II to Carbonic anhydrase IX

Carbonic anhydrase 1, sequence (P00915 whole entry): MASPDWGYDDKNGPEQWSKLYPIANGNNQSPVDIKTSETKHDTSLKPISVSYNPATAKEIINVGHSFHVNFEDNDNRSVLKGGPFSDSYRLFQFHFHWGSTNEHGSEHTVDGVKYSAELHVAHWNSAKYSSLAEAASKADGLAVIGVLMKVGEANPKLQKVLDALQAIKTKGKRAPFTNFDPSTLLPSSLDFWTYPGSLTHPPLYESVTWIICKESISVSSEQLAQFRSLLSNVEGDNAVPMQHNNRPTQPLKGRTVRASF
Description for Carbonic anhydrase 1: Inhibitory constant against human Carbonic anhydrase I
Description for Carbonic anhydrase 2: Inhibitory constant against human Carbonic anhydrase II
Description for Carbonic anhydrase 9: Inhibitory constant against human Carbonic anhydrase IX

As for `CN(C)CC/N=C(\S)Nc1ccc(S(=O)(=O)NCc2ccc(S(N)(=O)=O)cc2)cc1`, the Ki in assay [1] came to 2.22 Ratio; on Carbonic anhydrase 2 it was 12 nM; on Carbonic anhydrase 9 it was 5.4 nM; at Carbonic anhydrase 1 it was 210 nM.

In the case of `NS(=O)(=O)c1ccc(NS(=O)(=O)c2ccc(N/C(S)=N/N3CCOCC3)cc2)cc1`, the Ki at Carbonic anhydrase 2 was 290 nM; at Carbonic anhydrase 1 it was 233 nM.

Turning to `CN1CCN(CC/N=C(\S)Nc2ccc(S(=O)(=O)NCc3ccc(S(N)(=O)=O)cc3)cc2)CC1`, the Ki in assay [1] was determined as 2.06 Ratio; at Carbonic anhydrase 2, 10.3 nM; on Carbonic anhydrase 9, 5 nM; on Carbonic anhydrase 1, 246 nM.

On to `CN1CCN(CC/N=C(\S)Nc2ccc(S(=O)(=O)Nc3ccc(S(N)(=O)=O)cc3)cc2)CC1`, for which the Ki in assay [1] was 1.5 Ratio; on Carbonic anhydrase 2, 7.2 nM; at Carbonic anhydrase 9, 4.8 nM; on Carbonic anhydrase 1, 175 nM.

On to `NS(=O)(=O)c1ccc(CNS(=O)(=O)c2ccc(N/C(S)=N/CCN3CCOCC3)cc2)cc1`, for which the Ki in assay [1] was determined as 45.83 Ratio; at Carbonic anhydrase 2, 220 nM; on Carbonic anhydrase 9, 4.8 nM; at Carbonic anhydrase 1 it was 3.1 nM.

As for `NS(=O)(=O)c1ccc(CNS(=O)(=O)c2ccc(NC(=S)NN3CCOCC3)cc2)cc1`, the Ki came to 278 nM at Carbonic anhydrase 2 and 268 nM on Carbonic anhydrase 1.

With `NS(=O)(=O)c1ccc(CC/N=C(\S)Nc2ccc(S(=O)(=O)NCc3ccc(S(N)(=O)=O)cc3)cc2)cc1`, the Ki came to 10 Ratio in assay [1], 46 nM on Carbonic anhydrase 2, 4.6 nM at Carbonic anhydrase 9 and 3.7 nM on Carbonic anhydrase 1.

With `CN(C)CC/N=C(\S)Nc1ccc(S(=O)(=O)NCCc2ccc(S(N)(=O)=O)cc2)cc1`, the Ki in assay [1] was 1.65 Ratio; at Carbonic anhydrase 2, 10.1 nM; on Carbonic anhydrase 9, 6.1 nM; at Carbonic anhydrase 1, 308 nM.

On to `NS(=O)(=O)c1ccc(CNS(=O)(=O)c2ccc(NC(=S)NCc3ccccn3)cc2)cc1`, for which the Ki came out at 290 nM on Carbonic anhydrase 2 and 355 nM at Carbonic anhydrase 1.

With `NS(=O)(=O)c1ccc(NS(=O)(=O)c2ccc(N/C(S)=N/CCN3CCOCC3)cc2)cc1`, the Ki in assay [1] was determined as 32.14 Ratio; at Carbonic anhydrase 2, 180 nM; on Carbonic anhydrase 9, 5.6 nM; on Carbonic anhydrase 1, 9.5 nM.

On to `CN(C)CC/N=C(\S)Nc1ccc(S(=O)(=O)Nc2ccc(S(N)(=O)=O)cc2)cc1`, for which the Ki in assay [1] was found to be 1.2 Ratio; on Carbonic anhydrase 2 it was 8.1 nM; on Carbonic anhydrase 9 it was 6.7 nM; at Carbonic anhydrase 1, 105 nM.

In the case of `NS(=O)(=O)c1ccc(CNS(=O)(=O)c2ccc(NC(=S)NCCc3ccccc3)cc2)cc1`, the values for the Ki on Carbonic anhydrase 2 and at Carbonic anhydrase 1 were 640 nM and 8.6 nM, respectively.
